Patent US11434205B2, “Substituted imidazole carboxylate derivatives and the use thereof” (priority 2018, dated 2022)
pEC50: −log10 of the molar value. Read-outs that look alike come from different tables or passages of the source.

Key:
[1] = system: secretion of corticosterone, H295R cell line; assay: cells; format: cell-based; conditions: for pEC50: Homo sapiens, NCI-H295R, read-out: EC50 (Corticosterone)
Method: (§1) The Effects of the Compounds on Adrenocortical Function In Vitro Test
(§2) Then secretion of the cortisol and corticosterone in the supernatant, was measured using HPLC-MS/MS method to determine whether the compounds of the present invention had adrenotoxic potential.

[2] = system: secretion of cortisol, H295R cell line; assay: cells; format: cell-based; conditions: for pEC50: Homo sapiens, NCI-H295R, read-out: EC50 (Cortisol)
Method: as §1, §2

rats [3] = format: in vivo, rat; conditions: for recovery time of the test animals' righting reflex: rats of the MAP/HR figures, 2×ED50, tail vein, same value in min
Method: The Effects of the Compounds on the Circulatory Function were Measured in Rats Using a Small Animal Implanted Physiological Signal Telemetry System
The anesthetic activity of the compounds was assessed in rats using a LORR assay and the up and down method was used to determine ED50. […] A small animal implantable physiological signal telemetry system from DSI (Data Science International, Inc.) was used to measure the changes in heart rate (HR) and blood pressure in rats during 30 min after administration. Then mean arterial pressure (MAP) and HR were used as representative indicators to determine hemodynamic stability of the compounds of the present invention in rats.
A small animal implantable physiological signal telemetry system from DSI (Data Science International, Inc.) including implants (RATHD-521, DSI, United States), receiver boards (RPC-1, DSI, United States), signal conversion devices (DEM, DSI, USA), perfusion glue (DSI, USA), fibrin membrane (DSI, USA), etc.
First, animal models were established. A left ventricular catheter, an abdominal aortic catheter and ECG wires were placed into rats. At least one week after surgery, data were recorded.
Administration procedure: rats were put into a restraint device with a 20 G indwelling catheter placed into a lateral tail vein. After administration of 0.2 mL heparin, a pre-filled extension tube was attached and taped to the tail vein to secure the extension tube. Then the rats were removed from the restraint device to a cage before placing them together on the signal receiver. […] Finally, the pharmacological effects, adverse reactions, and behavioural manifestations of the rats were observed and recorded
Data collection: After setting the data collection parameters on the software, the power of the implant was turned on to start data collection. In this experiment, data recording frequency was set to 15 s. Data collection was continuously recorded for 30 min before and after administration of the drugs in rats. After data acquisition, the test was stopped.

rats [4] = format: in vivo, rat; conditions: rats of the MAP/HR figures, 2×ED50, tail vein
[5] = H295R cell line, 0.1-10000 nM, HPLC-MS/MS, Table D3

SMILES	Corticosterone as an indicator to determine the presence of inhibition ([1]; H295R, Table C3)	pEC50 [1]	Cortisol as an indicator to determine the presence of inhibition ([2]; H295R, Table C3)	pEC50 [2]	recovery time of the test animals' righting reflex (rats [3])	recovery time of the test animals' righting reflex (rats [4])	other results
CC(=O)C1(COC(=O)c2cncn2[C@H](C)c2ccccc2)CC1 [Compound C4]	0	< 6.00	0	< 6.00	–	–	–
CC(=O)CC(C)(C)OC(=O)c1cncn1[C@H](C)c1ccccc1 [Compound C13]	0	< 5.00	0	< 5.00	–	–	–
CC(=O)COC(=O)c1cncn1[C@H](C)c1ccccc1 [Compound C6]	–	–	–	–	2.0 min	120 s	–
CSCC1(CSC(=O)c2cncn2[C@H](C)c2ccccc2)CCC1 [Compound A46]	–	< 7.00	–	< 7.00	–	–	Corticosterone as an indicator to determine the presence of inhibition ([1]; H295R, Table A3): 0; Cortisol as an indicator to determine the presence of inhibition ([2]; H295R, Table A3): 0
CC(=O)C1(COC(=O)c2cncn2[C@H](C)c2ccccc2)COC1 [Compound C5]	0	< 6.00	0	< 6.00	–	–	–
C[C@H](c1ccccc1)n1cncc1C(=O)OC(C)(C)C1OC1(C)C (stereo partly shown) [Compound B25]	–	–	–	< 6.00	–	–	Corticosterone as an indicator to determine the presence of inhibition ([1]; H295R, Table B3): 0; Cortisol as an indicator to determine the presence of inhibition ([2]; H295R, Table B3): 0
CC(=O)C(C)(C)SC(=O)c1cncn1[C@H](C)c1ccccc1 [Compound C22]	–	–	–	–	1.55 min	93 s	–
C[C@H](c1ccccc1)n1cncc1C(=O)SC1CCC1 [Compound A29]	–	–	–	–	4.25 min	255 s	–
C/C=C/C1(OC(=O)c2cncn2[C@H](C)c2ccccc2)CCC1 [Compound D20]	–	< 5.00	–	< 5.00	–	–	Corticosterone as an indicator to determine the presence of inhibition [1, 5]: 0; Cortisol as an indicator to determine the presence of inhibition [2, 5]: 0
C[C@H](c1ccccc1)n1cncc1C(=O)SCC1CCC1 [Compound A27]	–	–	–	–	2.10 min	126 s	–
CC(=O)C1(COC(=O)c2cncn2[C@H](C)c2ccccc2)CCC1 [Compound C11]	0	< 6.00	0	< 6.00	–	–	–
CC(C)c1cccc(C(C)C)c1O [propofol, reference compound]	–	–	–	–	10.75 min	645 s	effect on the circulatory function (MAP, HR) (rats [3]; rats, 2×ED50, 30 min after administration): significant inhibition of the circulatory function
C[C@H](c1ccccc1)n1cncc1C(=O)OC[S+](C)[O-] (stereo partly shown) [Compound C9]	0	< 5.00	0	< 5.00	–	–	–
C[C@H](c1ccccc1)n1cncc1C(=O)OCC1(C=O)COC1 [Compound C12]	0	< 6.00	0	< 6.00	–	–	–
C=CC#CC(C)OC(=O)c1c(Cl)ncn1[C@H](C)c1ccccc1 (stereo partly shown) [Compound E121]	–	–	–	–	3.07 min	184 s	–
CC(=O)C1(OC(=O)c2cncn2[C@H](C)c2ccccc2)CCC1 [Compound C2]	–	–	–	–	3.03 min	182 s	–
C[C@H](c1ccccc1)n1cncc1C(=O)OCC[S+](C)[O-] (stereo partly shown) [Compound C10]	0	< 5.00	0	< 5.00	–	–	–
C[C@H](c1ccccc1)n1cnc(F)c1C(=O)OC1(C=C=S)CCCCC1 [Compound E23]	–	–	–	–	1.53 min	92 s	–
CC(=O)CCSC(=O)c1cncn1[C@H](C)c1ccccc1 [Compound C23]	–	–	–	–	3.43 min	206 s	–
